This passage reports IC50 results from patent publication US8143304B2, “(3-amino-1,2,3,4-tetrahydro-9 H-carbazol-9-yl)-acetic acid derivatives” (Actelion Pharmaceutical Ltd., priority 2006, dated 2012).

The assay concerns the target T1, hCRTH2 receptor (Homo sapiens, UniProt Q9Y5Y4).
T1 construct: expressed in transfected cells; host or cells: clonal HEK 293 cell line (membrane preparation)
T1 sequence (Q9Y5Y4 1-395): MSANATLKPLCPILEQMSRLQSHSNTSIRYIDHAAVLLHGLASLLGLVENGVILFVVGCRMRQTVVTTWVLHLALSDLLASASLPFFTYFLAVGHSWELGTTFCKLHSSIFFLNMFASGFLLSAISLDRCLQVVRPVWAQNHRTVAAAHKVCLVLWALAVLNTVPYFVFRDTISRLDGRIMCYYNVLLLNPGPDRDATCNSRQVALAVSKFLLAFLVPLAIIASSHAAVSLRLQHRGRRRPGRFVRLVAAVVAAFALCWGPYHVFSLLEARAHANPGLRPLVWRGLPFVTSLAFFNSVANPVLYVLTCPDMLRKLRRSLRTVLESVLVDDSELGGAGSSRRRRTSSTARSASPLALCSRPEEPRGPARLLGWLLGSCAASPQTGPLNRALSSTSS
As to the kind of experiment: hCRTH2 receptor membranes radioligand binding assay ({3H}-PGD2). The following applies: {3H}-PGD2 2.5 nM, membranes of HEK 293 cells expressing recombinant hCRTH2 receptor; read-out: hCRTH2 Bdg IC50. How it is done:
The biological effect of such compounds may be tested in a variety of in vitro, ex vivo and in vivo assays.
Biological Assays: Preparation of hCRTH2 Receptor Membranes and Radioligand Binding Assay:
Cells are detached from culture plates in 5 ml buffer A per plate (5 mM Tris, pH 7.4, 1 mM MgCl2, 0.1 mM PMSF, 0.1 mM phenanthroline) using a police rubber and transferred into centrifugation tubes and frozen at −80° C. After thawing, the cells are centrifuged at 500 g for 5 min and then resuspended in buffer A. Cells are then fragmented by homogenization with a Polytron cell homogenizer for 30 s. The membrane fragments are collected by centrifugation at 3000 g for 40 min and resuspended in buffer B (50 mM Tris, pH 7.4, 25 mM MgCl2, 250 mM saccharose) and aliquots are stored at […].
Binding assay is performed in a total volume of 250 μl. […] For unspecific binding, PGD2 is added to the reaction mixture at 1 μM final concentration. This binding assay mix is incubated at rt for 90 min and then filtered through a GF/C filter plate. The filter is washed three times with ice cold binding buffer C. Then, Microscint-40 (Packard, 40 μl/well) is added and the receptor bound radioactivity is quantified by scintillation counting in a “TopCount” benchtop microplate scintillation counter (Packard).

Consider `COc1cccc2c1CC(C(=O)N[C@H]1CCc3c(c4cc(F)ccc4n3CC(=O)O)C1)CC2` (mixture of isomers) [(3S)-(6-Fluoro-3-{[(2RS)-8-methoxy-1,2,3,4-tetrahydro-naphthalene-2-carbonyl]-amino}-1,2,3,4-tetrahydro-9H-carbazol-9-yl)-acetic acid], for which the 50% inhibitory concentration (IC50) was 0.018 µM.

Turning to `COc1cccc(NC(=O)CC(Cc2ccccc2)C(=O)N[C@H]2CCc3c(c4cc(F)ccc4n3CC(=O)O)C2)c1` (mixture of isomers) [(3S)-{3-[(RS)-2-Benzyl-3-(3-methoxy-phenylcarbamoyl)-propionylamino]-6-fluoro-1,2,3,4-tetrahydro-9H-carbazol-9-yl}-acetic acid], the half-inhibitory concentration (IC50) worked out at 0.006 µM.

With `O=C(O)Cn1c2c(c3cc(C(F)(F)F)ccc31)CC(NC(=O)OCc1ccccc1)CC2` (racemic), the half-maximal inhibitory concentration (IC50) is 0.026 µM.

On to `O=C(O)Cn1c2c(c3cc(F)cc(Cl)c31)CC(NC(=O)CCc1ccccc1)CC2` (racemic), for which the IC50 was 0.057 µM.

Consider `O=C(O)Cn1c2c(c3ccccc31)C[C@H](NC(=O)c1ccccc1)CC2` [(3R)-(3-Benzoylamino-1,2,3,4-tetrahydro-9H-carbazol-9-yl)-acetic acid], for which the IC50 is 0.488 µM.

As for `O=C(O)Cn1c2c(c3ccccc31)C[C@H](NC(=O)Cc1cccs1)CC2` [(3R)-[3-(2-Thiophen-2-yl-acetylamino)-1,2,3,4-tetrahydro-9H-carbazol-9-yl]-acetic acid], the half-maximal inhibitory concentration (IC50) is 0.297 µM.

Consider `O=C(O)Cn1c2c(c3ccccc31)C[C@H](NC(=O)CCC1CCCC1)CC2` [(3R)-[3-(3-Cyclopentyl-propionylamino)-1,2,3,4-tetrahydro-9H-carbazol-9-yl]-acetic acid], for which the IC50 stood at 0.4 µM.

On to `O=C(O)Cn1c2c(c3ccccc31)C[C@H](NC(=O)Nc1cccc3ccccc13)CC2` [(3R)-[3-(3-Naphthalen-1-yl-ureido)-1,2,3,4-tetrahydro-9H-carbazol-9-yl]-acetic acid], for which the IC50 was 0.152 µM.

On to `O=C(O)Cn1c2c(c3ccccc31)C[C@H](NC(=O)NS(=O)(=O)c1ccccc1)CC2` [(3R)-[3-(3-Phenylsulfonyl-ureido)-1,2,3,4-tetrahydro-9H-carbazol-9-yl]-acetic acid], for which the IC50 stood at 0.147 µM.

Take `Cc1ccc(CCC(=O)N[C@@H]2CCc3c(c4cc(F)ccc4n3CC(=O)O)C2)cc1` [(3R)-[6-Fluoro-3-(3-p-tolyl-propionylamino)-1,2,3,4-tetrahydro-9H-carbazol-9-yl]-acetic acid]: the IC50 is 0.061 µM.

As to `O=C(O)Cn1c2c(c3cc(F)ccc31)C[C@H](NC(=O)CCc1cccc(Cl)c1)CC2` [(3R)-{3-[3-(3-Chloro-phenyl)-propionylamino]-6-fluoro-1,2,3,4-tetrahydro-9H-carbazol-9-yl}-acetic acid], the IC50 was 0.039 µM.

On to `CC(C)COC(=O)N[C@H]1CCc2c(c3ccccc3n2CC(=O)O)C1` [(3S)-(3-Isobutoxycarbonylamino-1,2,3,4-tetrahydro-9H-carbazol-9-yl)-acetic acid], for which the IC50 came to 0.084 µM.

In the case of `CC(=O)N(CCc1ccccc1F)[C@H]1CCc2c(c3cc(F)ccc3n2CC(=O)O)C1` [(3S)-(3-{Acetyl-[2-(2-fluoro-phenyl)-ethyl]-amino}-6-fluoro-1,2,3,4-tetrahydro-9H-carbazol-9-yl)-acetic acid], the half-maximal inhibitory concentration (IC50) is 0.004 µM.

Regarding `COCCN(C(=O)CCc1ccccc1OC)[C@H]1CCc2c(c3cc(F)ccc3n2CC(=O)O)C1` [(3S)-(6-Fluoro-3-{(2-methoxy-ethyl)-[3-(2-methoxy-phenyl)-propionyl]-amino}-1,2,3,4-tetrahydro-9H-carbazol-9-yl)-acetic acid], the IC50 worked out at 0.006 µM.

Turning to `O=C(O)Cn1c2c(c3ccccc31)C[C@@H](NC(=O)OCCOCc1ccccc1)CC2` [(3S)-[3-(2-Benzyloxy-ethoxycarbonylamino)-1,2,3,4-tetrahydro-9H-carbazol-9-yl]-acetic acid], the IC50 stood at 0.117 µM.
